Measured values published in ChEMBL document CHEMBL4673334, “In Vivo Biological Evaluation of a Synthetic Royleanone Derivative as a Promising Fast-Acting Trypanocidal Agent by Inducing Mitochondrial-Dependent Necrosis” (J Nat Prod, 2020).
pIC50: −log10 of the molar value. Calls of active or inactive are those of the source. The calls are words filed in the database; no cut-off is given here.

What was measured:
[1] = Toxicity in BALB/c mouse infected with Trypanosomal Trypanosoma cruzi MHOM/Pe/2011/Arequipa(DTU V) assessed as effect on ALT/GPT level at 20 mg/kg, po administered for 5 days starting at 9 days post infection and measured after 2 days post treatment; format: organism-based; conditions: in vivo, 120 h, time 5 day
[2] = Toxicity in BALB/c mouse infected with Trypanosomal Trypanosoma cruzi MHOM/Pe/2011/Arequipa(DTU V) assessed as effect on CK-MB level at 20 mg/kg, po administered for 5 days starting at 9 days post infection and measured after 2 days post treatment; format: organism-based; conditions: in vivo, 120 h, time 5 day
[3] = Toxicity in BALB/c mouse infected with Trypanosomal Trypanosoma cruzi MHOM/Pe/2011/Arequipa(DTU V) assessed as effect on AST/GOT level at 20 mg/kg, po administered for 5 days starting at 9 days post infection and measured after 2 days post treatment; format: organism-based; conditions: in vivo, 120 h, time 5 day
Trypanosoma cruzi [4] = assay: Antitrypanosomal activity against Trypanosoma cruzi MHOM/Pe/2011/Arequipa(DTU V) amastigote form infected in Vero cells assessed as parasite growth inhibition at 50 uM incubated for 72 hrs by Giemsa-staining based assay relative to control; format: functional
[5] = Toxicity in BALB/c mouse infected with Trypanosomal Trypanosoma cruzi MHOM/Pe/2011/Arequipa(DTU V) assessed as effect on ALT/GPT level at 20 mg/kg, po administered for 5 days starting at 100 days post infection and measured after 2 days post treatment; format: organism-based; conditions: in vivo, 120 h, time 5 day
[6] = Toxicity in BALB/c mouse infected with Trypanosomal Trypanosoma cruzi MHOM/Pe/2011/Arequipa(DTU V) assessed as effect on ALP level at 20 mg/kg, po administered for 5 days starting at 9 days post infection and measured after 2 days post treatment; format: organism-based; conditions: in vivo, 120 h, time 5 day
[7] = Toxicity in BALB/c mouse infected with Trypanosomal Trypanosoma cruzi MHOM/Pe/2011/Arequipa(DTU V) assessed as reduction in survival at 20 mg/kg, po administered for 5 days starting at 100 days post infection and measured up to 145 days post infection; format: organism-based; conditions: in vivo, 120 h, time 5 day
Trypanosoma cruzi [8] = assay: (§1) Antitrypanosomal activity against Trypanosoma cruzi MHOM/Pe/2011/Arequipa(DTU V) amastigote form infected in BALB/c mouse assessed as parasite free organ tissue ratio at 20 mg/kg, po administered for 5 days starting at 9 days post infection and measured up to 145 days post infection by PCR analysis relative to control; format: functional; conditions: time 5 day
[9] = Toxicity in BALB/c mouse infected with Trypanosomal Trypanosoma cruzi MHOM/Pe/2011/Arequipa(DTU V) assessed as effect on uric acid level at 20 mg/kg, po administered for 5 days starting at 9 days post infection and measured after 2 days post treatment; format: organism-based; conditions: in vivo, 120 h, time 5 day
[10] = Toxicity in BALB/c mouse infected with Trypanosomal Trypanosoma cruzi MHOM/Pe/2011/Arequipa(DTU V) assessed as effect on urea level at 20 mg/kg, po administered for 5 days starting at 100 days post infection and measured after 2 days post treatment; format: organism-based; conditions: in vivo, 120 h, time 5 day
[11] = Toxicity in BALB/c mouse infected with Trypanosomal Trypanosoma cruzi MHOM/Pe/2011/Arequipa(DTU V) assessed as effect on […] level at 20 mg/kg, po administered for 5 days starting at 100 days post infection and measured after 2 days post treatment; format: organism-based; conditions: in vivo, 120 h, time 5 day
[12] = Toxicity in BALB/c mouse infected with Trypanosomal Trypanosoma cruzi MHOM/Pe/2011/Arequipa(DTU V) assessed as effect on total bilirubin level at 20 mg/kg, po administered for 5 days starting at 9 days post infection and measured after 2 days post treatment; format: organism-based; conditions: in vivo, 120 h, time 5 day
[13] = Toxicity in BALB/c mouse infected with Trypanosomal Trypanosoma cruzi MHOM/Pe/2011/Arequipa(DTU V) assessed as effect on CK-MB level at 20 mg/kg, po administered for 5 days starting at 100 days post infection and measured after 2 days post treatment; format: organism-based; conditions: in vivo, 120 h, time 5 day
[14] = Toxicity in BALB/c mouse infected with Trypanosomal Trypanosoma cruzi MHOM/Pe/2011/Arequipa(DTU V) assessed as effect on total bilirubin level at 20 mg/kg, po administered for 5 days starting at 100 days post infection and measured after 2 days post treatment; format: organism-based; conditions: in vivo, 120 h, time 5 day
Trypanosoma cruzi [15] = assay: Antitrypanosomal activity against Trypanosoma cruzi MHOM/Pe/2011/Arequipa(DTU V) amastigote form infected in BALB/c mouse assessed as reduction in parasitaemia at 20 mg/kg, po for 5 days and measured after 55 days post infection; format: functional, organism-based; conditions: time 5.0 day
[16] = Toxicity in BALB/c mouse infected with Trypanosomal Trypanosoma cruzi MHOM/Pe/2011/Arequipa(DTU V) assessed as reduction in weight at 20 mg/kg, po administered for 5 days starting at 100 days post infection and measured up to 145 days post infection; format: organism-based; conditions: in vivo, 120 h, time 5 day
Trypanosoma cruzi [17] = assay: Inhibition of mitochondrial membrane potential in Trypanosoma cruzi MHOM/Pe/2011/Arequipa(DTU V) epimastigote form at IC25 concentration after 72 hrs by Rho (FITC-A) staining based flow cytometric analysis; format: functional
Trypanosoma cruzi [18] = assay: Inhibition of nucleic acid level in Trypanosoma cruzi MHOM/Pe/2011/Arequipa(DTU V) epimastigote form at IC25 concentration after 72 hrs by Rho (FITC-A) staining based flow cytometric analysis; format: functional
[19] = Toxicity in BALB/c mouse infected with Trypanosomal Trypanosoma cruzi MHOM/Pe/2011/Arequipa(DTU V) assessed as reduction in survival at 20 mg/kg, po administered for 5 days starting at 9 days post infection and measured up to 145 days post infection; format: organism-based; conditions: in vivo, 120 h, time 5 day
[20] = Toxicity in BALB/c mouse infected with Trypanosomal Trypanosoma cruzi MHOM/Pe/2011/Arequipa(DTU V) assessed as effect on LDH level at 20 mg/kg, po administered for 5 days starting at 100 days post infection and measured after 2 days post treatment; format: organism-based; conditions: in vivo, 120 h, time 5 day
[21] = Toxicity in BALB/c mouse infected with Trypanosomal Trypanosoma cruzi MHOM/Pe/2011/Arequipa(DTU V) assessed as effect on uric acid level at 20 mg/kg, po administered for 5 days starting at 100 days post infection and measured after 2 days post treatment; format: organism-based; conditions: in vivo, 120 h, time 5 day
Trypanosoma cruzi [22] = assay: as §1, with “100” for “9”; format: functional; conditions: time 5 day
Trypanosoma cruzi [23] = assay: Antitrypanosomal activity against Trypanosoma cruzi MHOM/Pe/2011/Arequipa(DTU V) amastigote form infected in BALB/c mouse assessed as reactivation parasitaemia at 20 mg/kg, po administered for 5 days starting at 9 days post infection and measured up to 145 days post infection relative to control; format: functional; conditions: time 5 day
[24] = Toxicity in BALB/c mouse infected with Trypanosomal Trypanosoma cruzi MHOM/Pe/2011/Arequipa(DTU V) assessed as reduction in weight at 20 mg/kg, po administered for 5 days starting at 9 days post infection and measured up to 145 days post infection; format: organism-based; conditions: in vivo, 120 h, time 5 day
[25] = Toxicity in BALB/c mouse infected with Trypanosomal Trypanosoma cruzi MHOM/Pe/2011/Arequipa(DTU V) assessed as effect on LDH level at 20 mg/kg, po administered for 5 days starting at 9 days post infection and measured after 2 days post treatment; format: organism-based; conditions: in vivo, 120 h, time 5 day
Vero = assay: Cytotoxicity against African green monkey Vero cells assessed as reduction in cell viability after 48 hrs by resazurin dye based assay; conditions: Chlorocebus sabaeus
Trypanosoma cruzi [26] = assay: Antitrypanosomal activity against Trypanosoma cruzi MHOM/Pe/2011/Arequipa(DTU V) amastigote form infected in BALB/c mouse assessed as reactivation parasitaemia at 20 mg/kg, po administered for 5 days starting at 100 days post infection and measured up to 145 days post infection relative to control; format: functional; conditions: time 5 day
[27] = Toxicity in BALB/c mouse infected with Trypanosomal Trypanosoma cruzi MHOM/Pe/2011/Arequipa(DTU V) assessed as effect on ALP level at 20 mg/kg, po administered for 5 days starting at 100 days post infection and measured after 2 days post treatment; format: organism-based; conditions: in vivo, 120 h, time 5 day
[28] = Toxicity in BALB/c mouse infected with Trypanosomal Trypanosoma cruzi MHOM/Pe/2011/Arequipa(DTU V) assessed as effect on urea level at 20 mg/kg, po administered for 5 days starting at 9 days post infection and measured after 2 days post treatment; format: organism-based; conditions: in vivo, 120 h, time 5 day
Trypanosoma cruzi [29] = assay: Antitrypanosomal activity against Trypanosoma cruzi MHOM/Pe/2011/Arequipa(DTU V) epimastigote form assessed as parasite growth inhibition incubated for 48 hrs by resazurin dye based assay; format: functional, organism-based
Trypanosoma cruzi [30] = assay: Antitrypanosomal activity against Trypanosoma cruzi IRHOD/CO/2008/SN3 (DTU I) epimastigote form assessed as parasite growth inhibition incubated for 48 hrs by resazurin dye based assay; format: functional, organism-based
Trypanosoma cruzi [31] = assay: Antitrypanosomal activity against Trypanosoma cruzi TINF/CH/1956/Tulahuen (DTU VI) epimastigote form assessed as parasite growth inhibition incubated for 48 hrs by resazurin dye based assay; format: functional, organism-based

Compound: O=C(Cn1ccnc1[N+](=O)[O-])NCc1ccccc1 [BENZNIDAZOLE]
- Activity [1]: Non-Toxic
- Activity [2]: Non-Toxic
- Activity [3]: Non-Toxic
- inhibition at 50 µM (Trypanosoma cruzi [4]): 100%
- Activity [5]: Non-Toxic
- Activity [6]: Non-Toxic
- Activity [7]: Non-Toxic
- Activity (Trypanosoma cruzi [8]): 28.5%
- Activity [9]: Non-Toxic
- Activity [10]: Non-Toxic
- Activity [11]: Non-Toxic
- Activity [12]: Non-Toxic
- Activity [13]: Non-Toxic
- Activity [14]: Non-Toxic
- Activity (Trypanosoma cruzi [15]): Active
- Activity [16]: Non-Toxic
- inhibition (Trypanosoma cruzi [17]): 35.4%
- inhibition (Trypanosoma cruzi [18]): 22.4%
- Activity [19]: Non-Toxic
- Activity [20]: Non-Toxic
- Activity [21]: Non-Toxic
- Activity (Trypanosoma cruzi [22]): 42.9%
- Activity (Trypanosoma cruzi [23]): 81.5%
- Activity [24]: Non-Toxic
- Activity [25]: Non-Toxic
- pIC50 (Vero): 4.09
- Activity (Trypanosoma cruzi [26]): 68.3%
- Activity [27]: Non-Toxic
- Activity [28]: Non-Toxic

Compound: CC(C)c1cc2c(cc1O)[C@@]1(C)CCC[C@@](C)(C=O)[C@@H]1CC2 [18-OXOFERRUGINOL]
- pIC50 (Trypanosoma cruzi [29]): 4.23
- pIC50 (Trypanosoma cruzi [30]): 4.20
- pIC50 (Trypanosoma cruzi [31]): 4.31
- pIC50 (Vero): 3.97

Compound: CC(C)c1cc2c(cc1O)[C@@]1(C)CCCC(C)(C)[C@@]1(O)OC2=O
- pIC50 (Trypanosoma cruzi [29]): 4.39
- pIC50 (Trypanosoma cruzi [30]): 4.04
- pIC50 (Trypanosoma cruzi [31]): 4.14
- pIC50 (Vero): 3.32

Compound: CC(C)c1cc2c(cc1O)[C@@]1(C)CCC[C@@]3(C)CO[C@@H]([C@@H]2O)[C@@H]31
- pIC50 (Trypanosoma cruzi [29]): 4.51
- pIC50 (Trypanosoma cruzi [30]): 4.44
- pIC50 (Trypanosoma cruzi [31]): 4.46
- pIC50 (Vero): 3.12

Compound: CC(C)C1=CC(=O)C2=C(C=C[C@H]3C(C)(C)CCC[C@]23C)C1=O
- pIC50 (Trypanosoma cruzi [29]): 4.72
- pIC50 (Trypanosoma cruzi [30]): 4.87
- pIC50 (Trypanosoma cruzi [31]): 4.72
- pIC50 (Vero): 4.58

Compound: CC(C)c1cc2c(cc1O)[C@@]1(C)CCC[C@@]3(C)CO[C@@H](C2=O)[C@@H]31
- pIC50 (Trypanosoma cruzi [29]): 4.29
- pIC50 (Trypanosoma cruzi [30]): 4.22
- pIC50 (Trypanosoma cruzi [31]): 4.20
- pIC50 (Vero): 3.02

Compound: COC(=O)[C@]1(C)CCC[C@]2(C)c3ccc(C(C)C)c(O)c3CC[C@@H]12
- pIC50 (Trypanosoma cruzi [29]): 4.12
- pIC50 (Trypanosoma cruzi [30]): 3.99
- pIC50 (Trypanosoma cruzi [31]): 4.15
- pIC50 (Vero): 3.99

Compound: CC(C)C1=CC2=C[C@@H]3OC(=O)[C@]4(C)CCC=C(C2=C(O)C1=O)[C@]34C
- pIC50 (Trypanosoma cruzi [29]): 4.12
- pIC50 (Trypanosoma cruzi [30]): 3.96
- pIC50 (Trypanosoma cruzi [31]): 4.02
- pIC50 (Vero): 3.65
